Where two headings read alike, the source gives them in different places.
Legend:
[1] = biological target: T1, GPR139 (Homo sapiens, UniProt Q6DWJ6); test: GPR139 Agonist titration / agonist counterscreen assay (calcium detection, HEK-GPR139 cells); type: cell-based; set-up: expressed in transfected cells; host or cells: HEK Aequorin cells, Maxcyte transient transfection; conditions: GPR139 Agonist Activity; for Averaged Max % Response (±St. Dev.): activity relative to known control; for EC50: read-out: EC50
T1 sequence (Q6DWJ6 1-353): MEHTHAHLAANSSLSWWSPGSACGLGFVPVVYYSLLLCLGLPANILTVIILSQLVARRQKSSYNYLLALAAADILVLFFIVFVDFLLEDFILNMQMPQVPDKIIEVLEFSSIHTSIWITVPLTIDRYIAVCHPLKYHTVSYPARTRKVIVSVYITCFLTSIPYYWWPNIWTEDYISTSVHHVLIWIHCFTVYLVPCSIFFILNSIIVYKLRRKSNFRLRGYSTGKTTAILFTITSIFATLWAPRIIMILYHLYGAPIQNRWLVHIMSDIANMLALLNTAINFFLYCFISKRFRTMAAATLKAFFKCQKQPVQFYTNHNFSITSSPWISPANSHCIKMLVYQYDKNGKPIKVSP
Method: GPR activity was assessed using a calcium detection assay. […] Negative control samples were treated with DMSO. […] Intracellular calcium was measured using Calcium 5.

[2] = tested on: parental HEK cells; test: HEK parental Agonist Counterscreen Assay (non-transfected cells); type: cell-based; conditions: for Averaged Max % Response (±St. Dev.): activity relative to known control
Source text: The high control for the agonist counterscreen was Forskolin not acetylcholine.

[3] = Homo sapiens, HEK293, HEK Agonist Activity section of Table 4 (parental HEK counterscreen)
[4] = HEK Agonist Activity section of Table 4 (parental HEK counterscreen)

| Compound | Averaged Max % Response (±St. Dev.) [1] [%] | Lipophilic Efficiency (logD) ([1]; based on logD) | Lipophilic Efficiency (logP) ([1]; based on logP) | Hill Slope ([1]; fitted dose-response curve) | Efficiency Ligand ([1]; ligand efficiency) | Lipophilic Efficiency (logD) ([2]; HEK Agonist Activity) | Lipophilic Efficiency (logP) ([2]; HEK Agonist Activity) | Averaged Max % Response (±St. Dev.) ([2]; HEK Agonist Activity) [%] | EC50 ([2]; Homo sapiens, HEK293, HEK Agonist Activity, parental non-transfected HEK cells) [nM] | Efficiency Ligand [1] | Hill Slope [1] | Lipophilic Efficiency (logD) [1] | Lipophilic Efficiency (logP) [1] | EC50 ([1]; HEK-GPR139 cells) [nM] | Lipophilic Efficiency (logD) ([2]; HEK Agonist Activity section) | Lipophilic Efficiency (logP) ([2]; HEK Agonist Activity section) | Averaged Max % Response (±St. Dev.) ([2]; HEK Agonist Activity section) [%] | EC50 [2, 3] [nM] | EC50 [2, 4] [nM] | EC50 ([1]; values printed in E-notation without unit) [nM] |
| --- | --- | --- | --- | --- | --- | --- | --- | --- | --- | --- | --- | --- | --- | --- | --- | --- | --- | --- | --- | --- |
| CC1=CN=C(CCc2ccc(F)c3ccccc23)C1 [SR-01000525232] | 96.70 ± 23.19 | 4.05 | 4.05 | 0.19 | 0.57 | 1.09 | 1.09 | −17.88 ± 3.50 | > 17400 | – | – | – | – | – | – | – | – | – | – | – |
| CNc1ccc(CCNC(=O)Cn2c3ccccc3c3nc(=O)cc(C)n32)cc1 [SR-01000139601] | 109.30 ± 18.80 | – | – | – | – | – | – | – | – | 0.31 | 0.85 | 3.57 | 3.57 | 416 | 2.04 | 2.04 | −14.37 ± 9.70 | > 14100 | – | – |
| COc1cc(OC)cc(C(=O)NNC(=O)COc2cc(C)c(Cl)c(C)c2)c1 [SR-01000358286] | 88.73 ± 9.49 | – | – | – | – | – | – | – | – | 0.31 | 1.77 | 2.95 | 2.95 | 971 | 1.79 | 1.78 | 17.27 ± 10.49 | – | > 14100 | – |
| C=C(CC1N=CC2=C1c1ccccc1CC2)NCc1ccc(C)cc1 (centres unmarked) [SR-01000134947] | 111.20 ± 10.15 | 4.02 | 4.02 | 0.36 | 0.38 | – | – | – | – | – | – | – | – | – | 2.07 | 2.07 | 1.42 ± 10.91 | > 14100 | – | – |
| Cc1[nH]ncc1-c1ccc(NC(=O)C2COc3ccc(F)cc3C2)c(OCCN2CCOCC2)c1.O=C(O)C(F)(F)F.O=C(O)C(F)(F)F (centres unmarked) [SR-00000005393] | 87.23 ± 6.46 | – | – | – | – | – | – | – | – | 0.25 | 0.94 | 3.27 | 3.22 | 629 | 1.92 | 1.87 | 10.82 ± 8.56 | – | > 14100 | – |
| O=C(NC1CC1)C1CC(Cc2cccc3ccccc23)=NO1 (centres unmarked) [SR-01000188699] | 112.57 ± 11.99 | 4.37 | 4.37 | 1.05 | 0.46 | – | – | – | – | – | – | – | – | – | 2.02 | 2.02 | 4.63 ± 6.30 | > 14100 | – | 63.8 |
| COC(=O)c1ccc(CSc2nnc(N)s2)cc1 [SR-01000031964] | 89.11 ± 2.96 | – | – | – | – | – | – | – | – | 0.51 | 1.27 | 4.00 | 4.00 | 290 | 2.26 | 2.26 | 13.73 ± 5.82 | – | > 16000 | – |
| CC1C(CC(=O)NCC(=O)CCC2=Cc3ccccc3C2)=Nc2ccccc21 (centres unmarked) [SR-01000068608] | 124.32 ± 15.50 | 4.52 | 4.51 | 0.93 | 0.34 | – | – | – | – | – | – | – | – | – | 2.46 | 2.46 | 24.17 ± 25.98 | > 14300 | – | – |
